Test results published in patent publication US20090239841A1, “Diaryl Ureas as CB1 Antagonists” (priority 2004, published 2009).

Target: T1, hCB1 (Homo sapiens, UniProt P21554)
T1 construct: made in house; host or cells: Sf9 insect cells (baculovirus), P2 membranes
Assay: Agonist-induced GTP binding (GTPγ35S) assay at CB1, Example 8
Type: biochemical
Settings: IC50 at CB1, determined as described in Example 8; read-out: IC50
Outline: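 Antagonism read as inhibition of 1 nM CP55,940-stimulated GTPγ35S ([…]) binding, compounds at 10^−10 to 10^−5 M. Baculovirus-infected Sf9 membranes bearing hCB1 plus G-protein subunits, 60 min room-temperature incubation with 5 μM GDP. Filtration and scintillation counting; data as percent over basal.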

T1 sequence (P21554 whole entry): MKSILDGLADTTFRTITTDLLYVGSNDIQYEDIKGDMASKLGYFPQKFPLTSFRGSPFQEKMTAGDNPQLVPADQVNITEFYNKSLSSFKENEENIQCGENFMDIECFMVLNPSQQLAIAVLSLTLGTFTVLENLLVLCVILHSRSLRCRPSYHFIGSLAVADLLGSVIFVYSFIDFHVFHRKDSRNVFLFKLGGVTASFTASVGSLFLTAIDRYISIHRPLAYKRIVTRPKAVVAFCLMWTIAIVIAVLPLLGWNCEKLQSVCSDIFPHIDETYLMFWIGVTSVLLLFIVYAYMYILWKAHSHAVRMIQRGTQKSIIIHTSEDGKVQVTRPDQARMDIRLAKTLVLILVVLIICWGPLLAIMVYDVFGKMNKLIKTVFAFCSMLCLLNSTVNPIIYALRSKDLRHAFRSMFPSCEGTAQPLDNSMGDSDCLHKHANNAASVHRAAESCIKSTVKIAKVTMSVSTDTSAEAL

| IC50 | Structure (SMILES) |
| --- | --- |
| < 2000 nM | CCCOc1ccc(NC(=O)Nc2ccccc2)cc1 [Compound 303, N-phenyl-N′-(4-propoxyphenyl)urea] |
| < 2000 nM | CCCOc1ccc(NC(=O)Nc2cccc(C)c2)cc1 [Compound 304, 1-(3-methylphenyl)-3-(4-propoxyphenyl)urea] |
| < 2000 nM | O=C(Nc1ccccc1)Nc1ccc(OC(F)F)cc1 [Compound 306, N-[4-(difluoromethoxy)phenyl]-N′-phenylurea] |
| < 2000 nM | Cc1cccc(NC(=O)Nc2ccc(OC(F)F)cc2)c1 [Compound 307, N-[4-(difluoromethoxy)phenyl]-N′-(3-methylphenyl)urea] |
| < 2000 nM | Cc1ccc(NC(=O)Nc2ccc(OC(F)F)cc2)cc1 [Compound 308, N-[4-(difluoromethoxy)phenyl]-N′-(4-methylphenyl)urea] |
| < 2000 nM | Cc1ccc(NC(=O)Nc2ccc(C)c(F)c2)cc1 [Compound 312, 1-(3-fluoro-4-methylphenyl)-3-(4-methylphenyl)urea] |
| < 2000 nM | Cc1ccc(NC(=O)Nc2ccc(Cl)cc2)cc1 [Compound 314, N-(4-chlorophenyl)-N′-(4-methylphenyl)urea] |
| < 2000 nM | O=C(Nc1ccccc1)Nc1ccc2c(c1)CCC2 [Compound 316, 1-(2,3-dihydro-1H-inden-5-yl)-3-phenylurea] |
| < 2000 nM | Cc1cccc(NC(=O)Nc2ccc(N3CCOCC3)c(Cl)c2)c1 [Compound 318, 1-(3-chloro-4-morpholin-4-ylphenyl)-3-(3-methylphenyl)urea] |
| < 2000 nM | Cc1cccc(NC(=O)Nc2ccc(-n3cnc(Cl)c3Cl)cc2)c1 [Compound 319, 1-[4-(4,5-dichloro-1H-imidazol-1-yl)phenyl]-3-(3-methylphenyl)urea] |
| < 2000 nM | Cc1ccc(NC(=O)Nc2ccc(-n3cnc(Cl)c3Cl)cc2)cc1 [Compound 320, 1-[4-(4,5-dichloro-1H-imidazol-1-yl)phenyl]-3-(4-methylphenyl)urea] |
| < 2000 nM | O=C(Nc1ccccc1)Nc1ccc(N2CCCCC2)cc1 [Compound 321, 1-phenyl-3-(4-piperidin-1-ylphenyl)urea] |
| < 2000 nM | Cc1ccc(NC(=O)Nc2ccc(N3CCCCC3)cc2)cc1 [Compound 322, 1-(4-methylphenyl)-3-(4-piperidin-1-ylphenyl)urea] |
| < 2000 nM | Cc1ccc2nc(NC(=O)Nc3ccccc3)sc2c1 [Compound 323, 1-(6-methyl-1,3-benzothiazol-2-yl)-3-phenylurea] |
| < 2000 nM | CCc1cccc(NC(=O)Nc2ccc(C)cc2)c1 [Compound 324, 1-(3-ethylphenyl)-3-(4-methylphenyl)urea] |
| < 2000 nM | CCc1ccc(NC(=O)Nc2ccc(F)cc2)cc1 [Compound 325, 1-(4-ethylphenyl)-3-(4-fluorophenyl)urea] |
| < 2000 nM | CC(C)c1ccc(NC(=O)Nc2ccc(F)cc2)cc1 [Compound 326, 1-(4-fluorophenyl)-3-(4-isopropylphenyl)urea] |
| < 2000 nM | CCCc1ccc(NC(=O)Nc2cccc(F)c2)cc1 [Compound 327, 1-(3-fluorophenyl)-3-(4-propylphenyl)urea] |
| < 2000 nM | CCCc1ccc(NC(=O)Nc2ccc(F)cc2)cc1 [Compound 328, 1-(4-fluorophenyl)-3-(4-propylphenyl)urea] |
| < 2000 nM | CCc1ccc(NC(=O)Nc2cccc(CC)c2)cc1 [Compound 329, 1-(3-ethylphenyl)-3-(4-ethylphenyl)urea] |

| IC50 | Structure (SMILES) |
| --- | --- |
| < 2000 nM | CCc1ccc(NC(=O)Nc2cccc(Cl)c2)cc1 [Compound 330, 1-(3-chlorophenyl)-3-(4-ethylphenyl)urea] |
| < 2000 nM | CCc1ccc(NC(=O)Nc2ccc(C(C)C)cc2)cc1 [Compound 332, 1-(4-ethylphenyl)-3-(4-isopropylphenyl)urea] |
| < 2000 nM | CC(C)c1ccc(NC(=O)Nc2ccc(Cl)cc2)cc1 [Compound 333, 1-(4-chlorophenyl)-3-(4-isopropylphenyl)urea] |
| < 2000 nM | CCCc1ccc(NC(=O)Nc2cccc(CC)c2)cc1 [Compound 334, 1-(3-ethylphenyl)-3-(4-propylphenyl)urea] |
| < 2000 nM | CCCc1ccc(NC(=O)Nc2cccc(Cl)c2)cc1 [Compound 335, 1-(3-chlorophenyl)-3-(4-propylphenyl)urea] |
| < 2000 nM | CCCc1ccc(NC(=O)Nc2ccc(Cl)cc2)cc1 [Compound 336, 1-(4-chlorophenyl)-3-(4-propylphenyl)urea] |
| < 2000 nM | CC(=O)c1ccc(NC(=O)Nc2ccc(C)cc2)cc1 [Compound 338, 1-(4-acetylphenyl)-3-(4-methylphenyl)urea] |
| < 2000 nM | CC(=O)c1ccc(NC(=O)Nc2cccc(F)c2)cc1 [Compound 339, 1-(4-acetylphenyl)-3-(3-fluorophenyl)urea] |
| < 2000 nM | CC(=O)c1ccc(NC(=O)Nc2ccc(F)cc2)cc1 [Compound 340, 1-(4-acetylphenyl)-3-(4-fluorophenyl)urea] |
| < 2000 nM | CCc1cccc(NC(=O)Nc2ccc(C(C)=O)cc2)c1 [Compound 341, 1-(4-acetylphenyl)-3-(3-ethylphenyl)urea] |
| < 2000 nM | CC(=O)c1ccc(NC(=O)Nc2cccc(Cl)c2)cc1 [Compound 342, 1-(4-acetylphenyl)-3-(3-chlorophenyl)urea] |
| < 2000 nM | CC(=O)c1ccc(NC(=O)Nc2ccc(Cl)cc2)cc1 [Compound 344, 1-(4-acetylphenyl)-3-(4-chlorophenyl)urea] |
| < 2000 nM | CC(C)c1ccc(NC(=O)Nc2ccc(C#N)cc2)cc1 [Compound 345, 1-(4-cyanophenyl)-3-(4-isopropylphenyl)urea] |
| < 2000 nM | CC(C)c1ccc(NC(=O)Nc2cccc(C#N)c2)cc1 [Compound 346, 1-(3-cyanophenyl)-3-(4-isopropylphenyl)urea] |
| < 2000 nM | CC(=O)c1cccc(NC(=O)Nc2ccc(C(C)C)cc2)c1 [Compound 347, 1-(3-acetylphenyl)-3-(4-isopropylphenyl)urea] |
| < 2000 nM | CC(=O)c1ccc(NC(=O)Nc2ccc(C(C)C)cc2)cc1 [Compound 348, 1-(4-acetylphenyl)-3-(4-isopropylphenyl)urea] |
| < 2000 nM | CCCc1ccc(NC(=O)Nc2ccc(C#N)cc2)cc1 [Compound 349, 1-(4-cyanophenyl)-3-(4-propylphenyl)urea] |
| < 2000 nM | CCCc1ccc(NC(=O)Nc2cccc(C#N)c2)cc1 [Compound 350, 1-(3-cyanophenyl)-3-(4-propylphenyl)urea] |
| < 2000 nM | CCCc1ccc(NC(=O)Nc2cccc(C(C)=O)c2)cc1 [Compound 351, 1-(3-acetylphenyl)-3-(4-propylphenyl)urea] |
| < 2000 nM | CCCc1ccc(NC(=O)Nc2ccc(C(C)=O)cc2)cc1 [Compound 352, 1-(4-acetylphenyl)-3-(4-propylphenyl)urea] |

| IC50 | Structure (SMILES) |
| --- | --- |
| < 2000 nM | CC(=O)c1ccc(NC(=O)Nc2cccc(Br)c2)cc1 [Compound 353, 1-(4-acetylphenyl)-3-(3-bromophenyl)urea] |
| < 2000 nM | CCOc1cccc(NC(=O)Nc2ccc(C)cc2)c1 [Compound 354, 1-(3-ethoxyphenyl)-3-(4-methylphenyl)urea] |
| < 2000 nM | CCOc1cccc(NC(=O)Nc2cccc(F)c2)c1 [Compound 355, 1-(3-ethoxyphenyl)-3-(3-fluorophenyl)urea] |
| < 2000 nM | CCOc1cccc(NC(=O)Nc2ccc(F)cc2)c1 [Compound 356, 1-(3-ethoxyphenyl)-3-(4-fluorophenyl)urea] |
| < 2000 nM | CCOc1ccc(NC(=O)Nc2cccc(F)c2)cc1 [Compound 357, 1-(4-ethoxyphenyl)-3-(3-fluorophenyl)urea] |
| < 2000 nM | CCOc1ccc(NC(=O)Nc2ccc(F)cc2)cc1 [Compound 358, 1-(4-ethoxyphenyl)-3-(4-fluorophenyl)urea] |
| < 2000 nM | COCc1ccc(NC(=O)Nc2ccc(C)cc2)cc1 [Compound 359, 1-[4-(methoxymethyl)phenyl]-3-(4-methylphenyl)urea] |
| < 2000 nM | COCc1ccc(NC(=O)Nc2cccc(F)c2)cc1 [Compound 360, 1-(3-fluorophenyl)-3-[4-(methoxymethyl)phenyl]urea] |
| < 2000 nM | CCCOc1ccc(NC(=O)Nc2cccc(F)c2)cc1 [Compound 361, 1-(3-fluorophenyl)-3-(4-propoxyphenyl)urea] |
| < 2000 nM | CCCOc1ccc(NC(=O)Nc2ccc(F)cc2)cc1 [Compound 362, 1-(4-fluorophenyl)-3-(4-propoxyphenyl)urea] |
| < 2000 nM | CC(C)Oc1cccc(NC(=O)Nc2cccc(F)c2)c1 [Compound 363, 1-(3-fluorophenyl)-3-(3-isopropoxyphenyl)urea] |
| < 2000 nM | CC(C)Oc1cccc(NC(=O)Nc2ccc(F)cc2)c1 [Compound 364, 1-(4-fluorophenyl)-3-(3-isopropoxyphenyl)urea] |
| < 2000 nM | Cc1cccc(NC(=O)Nc2ccc(OC(C)C)cc2)c1 [Compound 365, 1-(4-isopropoxyphenyl)-3-(3-methylphenyl)urea] |
| < 2000 nM | Cc1ccc(NC(=O)Nc2ccc(OC(C)C)cc2)cc1 [Compound 366, 1-(4-isopropoxyphenyl)-3-(4-methylphenyl)urea] |
| < 2000 nM | CC(C)Oc1ccc(NC(=O)Nc2cccc(F)c2)cc1 [Compound 367, 1-(3-fluorophenyl)-3-(4-isopropoxyphenyl)urea] |
| < 2000 nM | CC(C)Oc1ccc(NC(=O)Nc2ccc(F)cc2)cc1 [Compound 368, 1-(4-fluorophenyl)-3-(4-isopropoxyphenyl)urea] |
| < 2000 nM | Cc1cccc(NC(=O)Nc2cccc(OC(F)F)c2)c1 [Compound 369, 1-[3-(difluoromethoxy)phenyl]-3-(3-methylphenyl)urea] |
| < 2000 nM | Cc1ccc(NC(=O)Nc2cccc(OC(F)F)c2)cc1 [Compound 370, 1-[3-(difluoromethoxy)phenyl]-3-(4-methylphenyl)urea] |
| < 2000 nM | O=C(Nc1cccc(F)c1)Nc1cccc(OC(F)F)c1 [Compound 371, 1-[3-(difluoromethoxy)phenyl]-3-(3-fluorophenyl)urea] |
